Reference: patent US20140086890A1, “COMPOSITIONS AND METHODS FOR TREATING HYPERPROLIFERATIVE DISORDERS” (priority 2004, published 2014)

Assays:
[1] = tested on: RENCA tumor cells; test: NK cell susceptibility assay of pre-sensitized RENCA tumor cells; type: cell-based, murine; settings: for NK cell susceptibility of RENCA (FIG. 8): 14 hours, 10 nM Velcade or 25 ng/ml Depsipeptide, autologous Balb/c NK cells, 4 hour assay; for susceptibility of RENCA tumor cells to NK cell mediated lysis (FIG. 7): pretreated 40 hours, Depsipeptide 25 ng/ml or Velcade 10 nM, NK cells from B10.d2 mouse
Method: (§1) Thereafter, the tumor cells were tested for NK cell susceptibility in a standard cytotoxicity assay. NK cells were purified from splenocytes from a B 10.d2 mouse by negative magnetic bead depletion of T cells, B cells, monocytes and granulocytes. NK cell purity was evaluated by DX5 and CD3 staining by flow cytometry. Purity of NK cells was always between 90-100%.
Cells were thereafter labeled with ^51Cr for 1 hour and tested for susceptibility to NK cell mediated lysis in a standard 4 hour assay. Murine autologous Balb/c NK cells tested against untreated (squares), Velcade (circles) or Depsipeptide (triangles) treated RENCA cell lines (Balb/c in origin).

[2] = tested on: human renal cell carcinoma (RCC) cell lines JOHW, SAUJ, STAR; test: NK cell susceptibility assay of pre-sensitized human RCC cell lines; type: cell-based; settings: for autologous NK cell susceptibility of human RCC SAUJ or STAR (FIG. 11): 24 hours, 25 ng/ml Depsipeptide or 10 nM Velcade; for allogeneic NK cell susceptibility of human RCC (FIG. 9) / autologous NK cell susceptibility of human RCC (FIG. 10): JOHW, 10 nM Velcade or 25 ng/ml Depsipeptide, 40 hours, 4 hour assay
Method: Cells were thereafter labeled with ^51Cr for 1 hour and tested for susceptibility to allogeneic NK cell mediated lysis in a standard 4 hour assay.
Cells were thereafter labeled with ^51Cr for 1 hour and tested for susceptibility to autologous NK cell mediated lysis in a standard 4 hour assay.
as §1, with “assay. Autologous” for “assay.”, “peripheral blood” for “splenocytes from a B 10.d2 mouse”, “CD56” for “DX5”

[3] = tested on: human RCC cell lines (JOHW, PORJC, SAUJ and STAR); type: cell-based
Method: (§3) Cells were then plated in a 96-well plate at 4,000 cell/well. Recombinant TRAIL [75-300 ng/ml] or recombinant Fas-ligand [12.5-100 ng/ml] was added to the cells and supernatant was harvested after 16 hours incubation. The level of lysis by TRAIL and Fas-ligand were calculated based on spontaneous and maximum ^51Cr release.

[4] = tested on: human RCC cell lines (JOHW, PORJC, SAUJ and STAR); type: cell-based; remark: listed apart in the source
Method: as §3

[5] = tested on: RCC cell lines (JOHW, SAUJ, STAR, RENCA); test: apoptosis by Annexin-V and 7-AAD staining; type: cell-based, human and murine; settings: Depsipeptide 25 ng/ml or Velcade 10 nM, 6-40 hours
Method: (§2) Level of apoptosis was evaluated by Annexin-V and 7-AAD staining (upper left chart). Expression of MHC class I was evaluated by flow cytometry by HLA-ABC for human RCC and H-2Dd/Kd for murine RCC (lower left chart). […] Cells were labeled with ^3H thymidine for analysis of proliferation (upper right chart).

[6] = tested on: human and murine RCC; test: 3H thymidine proliferation; type: cell-based; settings: various concentrations, 72 hours
Method: as §2

[7] = tested on: MHC class I; test: MHC class I expression by flow cytometry; type: cell-based, human and murine; settings: Depsipeptide 25 ng/ml or Velcade 10 nM, 6-40 hours
Method: as §2

[8] = tested on: MIC-A/B; test: MIC-A/B expression by flow cytometry; type: cell-based, human; settings: Depsipeptide 25 ng/ml or Velcade 10 nM, 6-40 hours
[9] = tested on: tumors; settings: mouse, in vivo; cited from earlier work
[10] = tested on: MIC-A/B; settings: cited from earlier work
[11] = tested on: HDAC; settings: cited from earlier work
[12] = tested on: neoplastic cells; settings: by reducing levels of c-FLIP; cited from earlier work
[13] = while retaining graft-versus-tumor effects; cited from earlier work

SMILES | NK cell susceptibility of RENCA (FIG. 8) [1] | susceptibility of RENCA tumor cells to NK cell mediated lysis (FIG. 7) [1] | autologous NK cell susceptibility of human RCC SAUJ or STAR (FIG. 11) [2] | allogeneic NK cell susceptibility of human RCC (FIG. 9) [2] | autologous NK cell susceptibility of human RCC (FIG. 10) [2] | cell lysis of presensitized RCC cells by TRAIL (FIG. 13) [3] | cell lysis of presensitized RCC cells by Fas ligand (FIG. 14) [4] | viability (apoptosis) of RCC cell lines (FIG. 15) [5] | proliferation of RCC cell lines (FIG. 15) [6] | MHC Class I expression of RCC cell lines (FIG. 15) [7] | MIC-A/B expression of human RCC (FIG. 15) [8] | anti-tumor effects: cell growth and formation of tumors in mice models [9] | MIC-A/B upon treatment [10] | concentrations at which HDAC activity is inhibited [11] | sensitization of neoplastic cells to TRAIL-mediated apoptosis [12] | acute graft-versus-host disease [13]
C/C=C1\NC(=O)[C@H]2CSSCC/C=C/[C@H](CC(=O)N[C@H](C(C)C)C(=O)N2)OC(=O)[C@H](C(C)C)NC1=O [Depsipeptide] | enhanced NK cell susceptibility | more susceptible | enhanced autologous NK cell susceptibility | enhanced allogeneic NK cell susceptibility | enhanced autologous NK cell susceptibility | Increased cell lysis | Increased cell lysis | no differences | no differences | no differences | no differences | anti-tumor effects | induction |  |  | 
C/C=C1\NC(=O)[C@H]2CSSCC/C=C/[C@H](CC(=O)N[C@H](C(C)C)C(=O)N2)OC(=O)[C@H](C(C)C)NC1=O [FR901228] |  |  |  |  |  |  |  |  |  |  |  |  |  | micromolar concentrations |  | 
CC(C)C[C@H](NC(=O)[C@H](Cc1ccccc1)NC(=O)c1cnccn1)B(O)O [PS-341] |  |  |  |  |  |  |  |  |  |  |  |  |  |  | sensitizes | 
CC(C)C[C@H](NC(=O)[C@H](Cc1ccccc1)NC(=O)c1cnccn1)B(O)O [Velcade] | enhanced NK cell susceptibility | more susceptible | enhanced autologous NK cell susceptibility | enhanced allogeneic NK cell susceptibility | enhanced autologous NK cell susceptibility |  |  | no differences | no differences | no differences |  |  |  |  |  | inhibits
